According to patent US20230310445A1, “LOX ENZYME INHIBITING METHODS AND COMPOSITIONS” (ANOVIA BIOSCIENCES, INC., priority 2020, published 2023):

Tests used:
[1] = target: T1, Recombinant human LOXL2 (lysyl oxidase like 2) (Homo sapiens, UniProt Q9Y4K0); test: LOXL2 inhibition assay (fluorometric, cadaverine/Amplex Red/HRP); type: biochemical; conditions: IC50 class; recombinant human LOXL2, cadaverine substrate; read-out: Activity Range LOXL2
T1 construct: purchased R&D systems
T1 sequence (Q9Y4K0 26-774): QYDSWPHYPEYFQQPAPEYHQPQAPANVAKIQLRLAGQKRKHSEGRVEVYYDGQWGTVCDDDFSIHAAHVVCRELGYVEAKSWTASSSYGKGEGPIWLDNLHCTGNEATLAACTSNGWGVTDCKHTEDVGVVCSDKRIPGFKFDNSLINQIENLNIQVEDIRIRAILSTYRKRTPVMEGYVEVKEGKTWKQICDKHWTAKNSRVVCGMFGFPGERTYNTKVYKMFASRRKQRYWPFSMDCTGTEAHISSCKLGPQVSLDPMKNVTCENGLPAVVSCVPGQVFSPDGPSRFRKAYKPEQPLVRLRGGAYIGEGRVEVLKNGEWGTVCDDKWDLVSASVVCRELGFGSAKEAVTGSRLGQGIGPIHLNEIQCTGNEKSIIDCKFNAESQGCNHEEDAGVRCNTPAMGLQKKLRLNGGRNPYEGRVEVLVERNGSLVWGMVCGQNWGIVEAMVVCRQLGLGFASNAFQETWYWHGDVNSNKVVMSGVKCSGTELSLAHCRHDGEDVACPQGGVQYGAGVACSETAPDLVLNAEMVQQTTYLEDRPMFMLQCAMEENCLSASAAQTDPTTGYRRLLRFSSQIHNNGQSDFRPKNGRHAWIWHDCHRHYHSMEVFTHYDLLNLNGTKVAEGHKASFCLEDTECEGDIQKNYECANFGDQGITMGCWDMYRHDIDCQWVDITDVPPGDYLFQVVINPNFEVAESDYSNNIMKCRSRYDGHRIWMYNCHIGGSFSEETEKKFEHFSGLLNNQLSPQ
Summary of the method: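 Both enzymes assayed in 1.2 M urea, 50 mM sodium borate pH 8.0, 10 mM CaCl, with 30 min compound–enzyme preincubation at 37° C before cadaverine/Amplex Red/HRP addition. Fluorescence followed 60 min at 37° C; linear-slope rates, background-subtracted, as % of DMSO control, fitted by 4-parameter variable-slope curve (bottom fixed at 0).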

[2] = target: T2, Recombinant human LOXL3 (lysyl oxidase like 3) (Homo sapiens, UniProt P58215); test: LOXL3 inhibition assay (fluorometric, cadaverine/Amplex Red/HRP); type: biochemical; conditions: IC50 class; recombinant human LOXL3, cadaverine substrate; read-out: Activity Range LOXL3
T2 construct: purchased R&D systems
T2 sequence (P58215 26-753): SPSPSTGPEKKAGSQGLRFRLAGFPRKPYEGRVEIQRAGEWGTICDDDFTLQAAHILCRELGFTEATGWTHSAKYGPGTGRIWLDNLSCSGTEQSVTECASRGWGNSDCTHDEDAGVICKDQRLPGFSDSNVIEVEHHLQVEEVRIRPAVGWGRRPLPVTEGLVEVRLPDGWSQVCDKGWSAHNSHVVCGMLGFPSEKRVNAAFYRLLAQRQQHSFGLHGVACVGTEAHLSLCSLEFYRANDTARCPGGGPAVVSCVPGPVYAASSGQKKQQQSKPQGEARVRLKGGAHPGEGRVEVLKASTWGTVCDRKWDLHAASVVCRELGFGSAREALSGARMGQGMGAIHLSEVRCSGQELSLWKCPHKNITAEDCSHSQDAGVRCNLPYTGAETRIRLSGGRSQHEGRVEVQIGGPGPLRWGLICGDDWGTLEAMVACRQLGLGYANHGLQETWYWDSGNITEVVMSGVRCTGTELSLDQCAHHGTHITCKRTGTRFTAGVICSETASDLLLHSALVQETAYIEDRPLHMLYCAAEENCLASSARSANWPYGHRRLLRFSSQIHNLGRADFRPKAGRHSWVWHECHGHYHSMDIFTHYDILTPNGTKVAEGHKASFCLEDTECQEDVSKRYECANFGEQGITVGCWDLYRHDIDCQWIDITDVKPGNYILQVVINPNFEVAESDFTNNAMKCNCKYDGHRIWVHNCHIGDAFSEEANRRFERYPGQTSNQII
Description: The ability of compounds to inhibit one or more of the lysyl oxidases LOXL2 and/or LOXL3 was determined using a fluorometric assay. This assay measures the activity of lysyl oxidases by coupling the reaction with horseradish peroxidase-catalyzed […]. The activity assay protocol uses cadaverine as substrate that releases hydrogen peroxide upon transformation by the specific LOX family enzyme present in the sample. Hydrogen peroxide is in turn detected using a red fluorescence substrate for HRP-coupled reactions (Amplex Red Enzyme Assays, Thermo Scientific Fisher). This leads to increase in fluorescence that can be easily detected at Ex/Em=540/590 nm in a fluorescence microplate reader.
Enzymes: Recombinant human LOXL2 (lysyl oxidase like 2) and recombinant human LOXL3 (lysyl oxidase like 3) were purchased from R&D systems and assays were performed in 1.2 M urea, 50 mM sodium borate buffer pH 8.0, and 10 mM CaCl.
Reaction: Final concentration in the LOXL2 and LOXL3 assays were as following and performed in a total volume of […]:
Experimental procedure: 5 μl of freshly prepared reaction buffer were delivered to reaction wells. Compounds were resuspended in 100% DMSO at 10 mM and delivered into buffer using acoustic technology (Echo550; nanoliter range). A 3× solution of LOXL2 or LOXL3 in reaction buffer was prepared (“enzyme solution”) and 5 μL of enzyme solution was added into the reaction wells. Buffer only was added to column 1 for no protein control. Reactions were incubated for 30 minutes at 37° C. A 3×mixture of cadaverine, Amplex Red, and HRP (“Substrate/Detection Mix) was prepared and subsequently 5 μL of the mixture added to each reaction well. Progress of reactions was monitored for 60 minutes at 37° C. using Clariostar plate reader (ex 530-12, ems 600-40). For all activity assays, pan-LOX inhibitor CCT365623 (Tang et al, 2017) and LOXL2/LOXL3 inhibitor PAT-1251 (PharmaKea) were included as standards.
Data analysis: Slope of the linear portion of the progress curve was calculated using Clariostar software. Typical analysis interval was between 8-30 min, but varied between experiments. The background subtracted signals (No protein wells are considered as background) were converted to % activity relative to DMSO controls. Data was analyzed using GraphPad Prism 4 with “sigmoidal dose-response (variable slope)”; 4 parameters with Hill Slope. Constraints: Bottom=Constant equal to 0. Top=Must be less than 120.

[3] = Microsome stability study; type: in vitro ADME, mouse; conditions: for half-life at 2 μM / microsomal CLint at 2 μM / CLint scaled at 2 μM: CD-1, pH 7.4; for half-life at 2 μM / microsomal CLint at 2 μM: male mouse liver microsomes 0.5 mg/mL, NADPH; for CLint scaled at 2 μM: male, read-out: Scaled-up CLint; for CLint scaled at 2 μM / Predicted hepatic CL: mouse liver microsomes
Description: Pooled CD-1 mouse liver microsomes at 0.5 mg/mL were pre-incubated in phosphate buffer (100 mM, pH 7.4) containing 1 mM NADPH and 3 mM MgCl2 in a 96-well plate for 5 minutes at 37° C. Ultra-pure water was added instead of NADPH in the negative control group to exclude the misleading factor that resulted from instability of chemical itself. The reaction was initiated by adding test compound at the final concentration of 2 μM and incubated at 37° C. Aliquots were taken from the incubation at 0, 15, 30, 45 and 60 minutes followed by the addition of 4 volume of cold acetonitrile containing internal standards. Samples were centrifuged and supernatant was used for LC-MS/MS analysis.

Row | Structure (SMILES) | IC50 [1] [nM] | IC50 [2] [nM] | half-life at 2 μM [3] [h] | microsomal CLint at 2 μM [3] [µL/min/mg] | CLint scaled at 2 μM [3] [mL/min/kg] | Predicted hepatic CL [3] [mL/min/kg]
1 | CS(=O)(=O)[C@H]1C[C@@H](S(=O)(=O)c2cccc(CN)c2)CN(c2ccccc2)C1 (racemic) [Example 23, cis-(3-((-5-(Methylsulfonyl)-1-phenylpiperidin-3-yl)sulfonyl)phenyl)methanamine] | ≤ 500 | 1000 to 30000 | 4.49 | 5.14 | 22.5 | 18.00
2 | CN(C)C(=O)N1C[C@@H](c2ccccc2)C[C@@H](S(=O)(=O)c2cccc(CN)c2)C1.O=C(O)C(F)(F)F (racemic) [Example 74, cis-3-((3-(Aminomethyl)phenyl)sulfonyl)-N,N-dimethyl-5-phenylpiperidine-1-carboxamide 2,2,2-trifluoroacetate] | ≤ 500 | 1000 to 30000 | 1.89 | 12.2 | 53.6 | 33.58
3 | NCc1ccnc(S(=O)(=O)N2C[C@@H](C(=O)N3CCOCC3)C[C@@H](C3CCCCC3)C2)c1 (racemic) [Example 145, cis-(1-((4-(Aminomethyl)pyridin-2-yl)sulfonyl)-5-cyclohexylpiperidin-3-yl)(morpholino)methanone 2,2,2-trifluoroacetate] | ≤ 500 | 500 to 1000 | – | – | – | –
4 | NCc1ccnc(S(=O)(=O)N2C[C@@H](C(=O)N3CCS(=O)(=O)CC3)C[C@@H](C3CCCCC3)C2)c1.O=C(O)C(F)(F)F (racemic) [Example 146, cis-(1-((4-(Aminomethyl)pyridin-2-yl)sulfonyl)-5-cyclohexylpiperidin-3-yl)(1,1-dioxidothiomorpholino)methanone 2,2,2-trifluoroacetate] | ≤ 500 | ≤ 500 | 0.533 | 43.3 | 190 | 61.03
5 | NCc1ccnc(S(=O)(=O)N2C[C@@H](C(=O)N3CCOCC3)C[C@@H](c3ccccc3)C2)c1 (relative stereo) [Example 133, cis-(1-((4-(Aminomethyl)pyridin-2-yl)sulfonyl)-5-phenylpiperidin-3-yl)(morpholino)methanone 2,2,2-trifluoroacetate] | ≤ 500 | ≤ 500 | – | – | – | –
6 | CN(C)C(=O)[C@H]1C[C@@H](C2CCCCC2)CN(S(=O)(=O)c2cccc(CN)c2)C1 (relative stereo) [Example 138, cis-1-((3-(Aminomethyl)phenyl)sulfonyl)-5-cyclohexyl-N,N-dimethylpiperidine-3-carboxamide 2,2,2-trifluoroacetate] | ≤ 500 | 1000 to 30000 | – | – | – | –
7 | NCc1ccnc(S(=O)(=O)N2C[C@@H](C(=O)N3CCOCC3)C[C@@H](c3ccccc3)C2)c1 [Example 133A, ((3S,5S)-1-((4-(aminomethyl)pyridin-2-yl)sulfonyl)-5-phenylpiperidin-3-yl)(morpholino)methanone 2,2,2-trifluoroacetate] | ≤ 500 | 500 to 1000 | – | – | – | –
8 | NCc1ccnc(S(=O)(=O)N2C[C@H](C(=O)N3CCOCC3)C[C@H](c3ccccc3)C2)c1 [Example 133B, ((3R,5R)-1-((4-(aminomethyl)pyridin-2-yl)sulfonyl)-5-phenylpiperidin-3-yl)(morpholino)methanone 2,2,2-trifluoroacetate] | ≤ 500 | ≤ 500 | – | – | – | –
